Assay in all cases: growth of human tumour cells (NCI), 48 h
Assay [1] relates to TK-10 renal.
Assay [2] concerns OVCAR-3 ovarian.
For assay [3], the system named is HCT-15 colon.
The test system of assay [4] is UACC-257 melanoma.
The subject of assay [5] is OVCAR-8 ovarian.
The test system of assay [6] is NCI-H460 lung.
Assay [7] relates to SK-OV-3 ovarian.
For assay [8], the system named is ACHN renal.
In assay [9] the test system is SF-539 CNS.

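The compound was tested at five concentrations on cells cultured in 96-well plates, with a 48-hour exposure period. GI50 is the concentration that inhibits growth by half. The concentration for full growth arrest is given as TGI.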

Take `CN(C)C=Nc1nc(=O)n(C2CCC(CO)O2)cc1F` (stereo not given): the TGI in [1], in assay [2], in [3], in assay [4], in [5] and in [6] was over 100 µM in each case. Moreover, the TGI in assay [7] and in assay [8] was over 100 µM each time.

`CN(C)C(=S)/N=c1\ssc(=S)n1C1CCCCC1`: the TGI was over 100 µM in assay [1]; over 100 µM in assay [3]; 64.9 µM in assay [4]; 53.9 µM in assay [5]; over 100 µM in assay [6]; over 100 µM in [7]. Besides, the TGI in assay [8] was over 100 µM; in assay [9], 48.3 µM.

Take `O=C(NC1C=CCC2C(=O)N(c3ccccc3)C(=O)C12)OCc1ccccc1` (stereo not given): the TGI in assay [1], in [2], in assay [4], in assay [5], in [6] and in assay [7] was over 100 µM throughout. The TGI in [8] and in assay [9] was over 100 µM each time.

For the compound `O=C1C(C(Nc2ccccc2)c2ccccc2)=C([O-])c2ccccc21.O=C1C(C(Nc2ccccc2)c2ccccc2)=C([O-])c2ccccc21.[Cu+2]` (stereo not given), the GI50 is over 100 µM in assay [1]; 52.4 µM in assay [3]; over 100 µM in [4]; 41.9 µM in assay [5]; 40 µM in assay [6]; 8.38 µM in assay [7]. The GI50 in [8] was 86.2 µM; in assay [9], 30.6 µM. Further, the TGI in assay [1] is over 100 µM; in assay [3], over 100 µM; in assay [4] it was over 100 µM; in assay [5], over 100 µM; in assay [6], over 100 µM; in [7], 63 µM. The TGI in [8] and in [9] was over 100 µM throughout.

On to `O=c1c2cccnc2ncn1CCN1CCCCC1`, for which the TGI in assay [1], in [2], in assay [5], in [6], in assay [7] and in assay [8] was over 100 µM each time. In addition, the TGI in assay [9] was over 100 µM.

Take `COc1ccc2c(c1)[n+]([O-])c(C(N)=O)c(N)[n+]2[O-]`: the TGI is 98.5 µM in [2]; over 100 µM in assay [3]; 94.6 µM in [4]; over 100 µM in assay [5]; over 100 µM in assay [6]; over 100 µM in assay [7]. Further, the TGI in assay [8] and in assay [9] was over 100 µM throughout.

In the case of `[O-][Cl+3]([O-])([O-])[O-].[O]=[Ru]=[O].c1ccc(-c2ccccn2)nc1.c1ccc(-c2ccccn2)nc1`, the GI50 in [2] is over 100 µM; in [3], over 100 µM; in assay [4] it was over 100 µM; in assay [5], over 100 µM; in assay [6], 56.1 µM; in assay [7], over 100 µM. In addition, the GI50 in [8] and in assay [9] was over 100 µM each time. Also, the TGI in assay [2], in assay [3], in assay [4], in assay [5], in assay [6] and in assay [7] was over 100 µM each time. The TGI in assay [8] and in assay [9] was over 100 µM each time.

With `Clc1ccc2cccc3c2c1C1OC3c2ccccc21` (stereo not given), the TGI in [1], in [2], in assay [4], in assay [5], in assay [7] and in [8] was over 100 µM each time. The compound further came in with a TGI in assay [9] of over 100 µM.

Consider `N#CCCC[Si]12OCCN(CCO1)CCO2`, for which the TGI in [1], in assay [2], in assay [4], in [5], in assay [6] and in assay [7] was over 100 µM throughout. The TGI in assay [8] and in [9] was over 100 µM each time.

Regarding `CCOC(=O)C1Sc2ccccc2N=C1C` (stereo not given), the TGI in [1], in [2], in assay [3], in assay [4], in assay [5] and in assay [6] was over 100 µM in each case. In addition, the TGI in [8] and in [9] was over 100 µM in each case.

For `COc1ccc(/C=C/COC(C)=O)cc1OC`, the TGI in [1], in [2], in assay [3], in assay [4], in assay [5] and in assay [7] was over 100 µM throughout. Moreover, the TGI in assay [8] and in assay [9] was over 100 µM each time.

`CCCOc1nc(N)c2cnn(C3CCCCO3)c2n1` (stereo not given): the TGI in [2], in assay [3], in [4], in assay [5], in assay [6] and in assay [7] was over 100 µM each time. The TGI in [8] and in assay [9] was over 100 µM in each case.

The values are drawn from PubChem BioAssay (NCI).
